Earlier results as cited in patent US20160128912A1, “Personal Care Compositions and Hangers” (The Procter & Gamble Company, priority 2014, published 2016).

Log (water Solubility in mol/L) | SMILES
−1.41 | O=C(O)c1ccccc1O [Salicylic acid, reference compound]
−2.46 | Oc1cc(Cl)ccc1Oc1ccc(Cl)cc1Cl [Triclosan, reference compound]
−3.15 | C=CCCCCCCCCC(=O)O [Undecylenic Acid]
−0.47 | OCc1ccccc1 [benzyl Alcohol]
−3.08 | CCCCCCC(O)CO (centres unmarked) [caprylyl glycol]
−1.91 | CCOC(=O)c1ccc(O)cc1 [ethyl paraben]
−0.83 | OCCc1ccccc1 [phenethyl alcohol]
−0.33 | C/C=C/C=C/C(=O)O [sorbic acid]
